Results on 40 molecules are retold here after ChEMBL document CHEMBL4359908, “Structure-activity relationship with pyrazoline-based aromatic sulfamates as carbonic anhydrase isoforms I, II, IX and XII inhibitors: Synthesis and biological evaluation” (Eur J Med Chem, 2019).

In one experiment the target is Carbonic anhydrase 2 (Homo sapiens, UniProt P00918). The experiment can be described thus: Inhibition of human carbonic anhydrase 2 assessed as inhibitory constant incubated for 15 mins by phenol red dye based stopped flow assay.
In experiment [1] the target is T1, Carbonic anhydrase 12 (Homo sapiens, UniProt O43570). The experiment can be described thus: Inhibition of human carbonic anhydrase 12 assessed as inhibitory constant incubated for 15 mins by phenol red dye based stopped flow assay.
T1 sequence (O43570 whole entry): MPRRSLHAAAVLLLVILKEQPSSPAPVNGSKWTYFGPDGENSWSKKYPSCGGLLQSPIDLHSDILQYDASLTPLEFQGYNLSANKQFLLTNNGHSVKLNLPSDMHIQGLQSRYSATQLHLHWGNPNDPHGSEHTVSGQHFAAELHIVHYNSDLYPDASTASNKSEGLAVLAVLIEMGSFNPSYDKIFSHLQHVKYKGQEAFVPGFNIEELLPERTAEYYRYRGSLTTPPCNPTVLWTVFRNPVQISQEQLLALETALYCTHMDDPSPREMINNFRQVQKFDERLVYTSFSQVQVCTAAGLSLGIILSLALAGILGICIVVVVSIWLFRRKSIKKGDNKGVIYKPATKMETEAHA
Another experiment concerns the target Carbonic anhydrase 1 (Homo sapiens, UniProt P00915). The experiment can be described thus: Inhibition of human carbonic anhydrase 1 assessed as inhibitory constant incubated for 15 mins by phenol red dye based stopped flow assay.
Experiment [2] concerns the target T2, Carbonic anhydrase 9 (Homo sapiens, UniProt Q16790). The experiment can be described thus: Inhibition of human carbonic anhydrase 9 assessed as inhibitory constant incubated for 15 mins by phenol red dye based stopped flow assay.
The target of experiment [3] is T1, Carbonic anhydrase 12. As to conditions: at 0.01 µM.
In experiment [4] the target is T2, Carbonic anhydrase 9. Conditions: at 0.001 µM.
Description: Inhibition of human carbonic anhydrase 9 assessed as reduction in CO2 hydration at 10^-9 M incubated for 15 mins by phenol red dye based stopped flow assay relative to control (Rvb = 0 %)
For experiment [5], the target named is T2, Carbonic anhydrase 9. As to conditions: at 0.1 µM.
Description: Inhibition of human carbonic anhydrase 9 assessed as reduction in CO2 hydration at 10^-7 M incubated for 15 mins by phenol red dye based stopped flow assay relative to control (Rvb = 0 %)
Experiment [6] addresses T1, Carbonic anhydrase 12. As to conditions: at 0.001 µM.
Experiment [7] deals with T2, Carbonic anhydrase 9. As to conditions: at 0.01 µM.
Description: Inhibition of human carbonic anhydrase 9 assessed as reduction in CO2 hydration at 10^-8 M incubated for 15 mins by phenol red dye based stopped flow assay relative to control (Rvb = 0 %)
In experiment [8] the target is T2, Carbonic anhydrase 9. As to conditions: at 1 µM.
Description: Inhibition of human carbonic anhydrase 9 assessed as reduction in CO2 hydration at 10^-6 M incubated for 15 mins by phenol red dye based stopped flow assay relative to control (Rvb = 0 %)
For experiment [9], the target named is T1, Carbonic anhydrase 12. Conditions: at 1 µM.
Description: Inhibition of human carbonic anhydrase 12 assessed as reduction in CO2 hydration at 10^-6 M incubated for 15 mins by phenol red dye based stopped flow assay relative to control (Rvb = 0 %)
For experiment [10], the target named is T1, Carbonic anhydrase 12. Conditions: at 0.1 µM.
Description: Inhibition of human carbonic anhydrase 12 assessed as reduction in CO2 hydration at 10^-7 M incubated for 15 mins by phenol red dye based stopped flow assay relative to control (Rvb = 0 %)

Sequence of Carbonic anhydrase 1 (P00915 whole entry): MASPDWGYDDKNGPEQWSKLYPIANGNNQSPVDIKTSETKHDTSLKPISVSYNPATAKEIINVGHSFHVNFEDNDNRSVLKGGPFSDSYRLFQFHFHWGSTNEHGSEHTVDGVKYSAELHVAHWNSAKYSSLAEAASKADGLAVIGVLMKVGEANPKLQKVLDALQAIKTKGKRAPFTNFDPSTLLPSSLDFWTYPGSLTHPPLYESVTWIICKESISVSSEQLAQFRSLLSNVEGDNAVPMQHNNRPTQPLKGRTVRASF

As usually defined, the Ki is a dissociation constant, usually derived from enzyme kinetics or from competition with a known ligand. As to `CC(=O)N1N=C(c2cccc(OS(N)(=O)=O)c2)CC1c1ccc([N+](=O)[O-])cc1` (configuration not stated), the Ki on Carbonic anhydrase 2 is 134 nM; at Carbonic anhydrase 12 [1] it was 20.8 nM; at Carbonic anhydrase 1 it was 1460 nM; on Carbonic anhydrase 9 [2] it was 10.1 nM.
On the same counts, the results for `CC(=O)N1N=C(c2cccc(OS(N)(=O)=O)c2)CC1c1c(Cl)cccc1Cl` (configuration not stated) are 223 nM, 61.3 nM, 1780 nM and 63.6 nM.
The corresponding values for `CC(=O)N1N=C(c2ccc(Cl)cc2)CC1c1ccc(OS(N)(=O)=O)cc1` (configuration not stated) are 19.5 nM, 29.5 nM, 970 nM and 8.3 nM.
On to `CC(=O)N1N=C(c2ccc(OS(N)(=O)=O)cc2)CC1c1cc(Cl)ccc1Cl` (configuration not stated), for which the inhibitory constant (Ki) at Carbonic anhydrase 2 is 12.4 nM; on Carbonic anhydrase 1 it was 4750 nM; at Carbonic anhydrase 9 [2], 25.5 nM.
As to `CC(=O)N1N=C(c2ccc(Cl)c(Cl)c2)CC1c1ccc(OS(N)(=O)=O)cc1` (configuration not stated), the Ki on Carbonic anhydrase 2 was determined as 27.6 nM; on Carbonic anhydrase 12 [1], 12.9 nM; on Carbonic anhydrase 1, 2900 nM; at Carbonic anhydrase 9 [2], 7.7 nM.
As to `CC(=O)N1N=C(c2ccc(F)cc2)CC1c1cccc(OS(N)(=O)=O)c1` (configuration not stated), the Ki at Carbonic anhydrase 2 is 6.5 nM; at Carbonic anhydrase 1, 5230 nM; at Carbonic anhydrase 9 [2], 15.8 nM.
On to `CC(=O)N1N=C(c2ccc(C)cc2)CC1c1cccc(OS(N)(=O)=O)c1` (configuration not stated), for which the Ki turned out to be 25.4 nM at Carbonic anhydrase 2, 49.8 nM on Carbonic anhydrase 12 [1], 1540 nM on Carbonic anhydrase 1 and 8.9 nM on Carbonic anhydrase 9 [2].
On the same counts, the results for `CC(=O)N1N=C(c2ccc(OS(N)(=O)=O)cc2)CC1c1c(Cl)cccc1Cl` (configuration not stated) are 13.2 nM, 43.7 nM, 4080 nM and 33.4 nM.
For the molecule `CC(=O)N1N=C(c2ccc(C)cc2)CC1c1ccc(OS(N)(=O)=O)cc1` (configuration not stated), the inhibition constant Ki is 9.9 nM at Carbonic anhydrase 2, 7.7 nM at Carbonic anhydrase 12 [1], 2340 nM at Carbonic anhydrase 1 and 22.4 nM on Carbonic anhydrase 9 [2].
As for `CC(=O)N1N=C(c2ccc(OS(N)(=O)=O)cc2)CC1c1ccc(C)cc1` (configuration not stated), the inhibition constant (Ki) on Carbonic anhydrase 2 was determined as 6.5 nM; at Carbonic anhydrase 12 [1], 22.3 nM; at Carbonic anhydrase 1, 817 nM; on Carbonic anhydrase 9 [2] it was 7.1 nM.
The corresponding values for `COc1ccc(C2CC(c3cccc(OS(N)(=O)=O)c3)=NN2C(C)=O)cc1` (configuration not stated) are 52.4 nM, 48.6 nM, 172 nM and 8.7 nM.
As for `CC(=O)N1N=C(c2cccc(OS(N)(=O)=O)c2)CC1c1ccccc1Cl` (configuration not stated), the Ki on Carbonic anhydrase 2 is 90.1 nM; on Carbonic anhydrase 12 [1], 74.4 nM; on Carbonic anhydrase 1, 940 nM; on Carbonic anhydrase 9 [2], 43.6 nM.
The corresponding values for `CC(=O)N1N=C(c2ccc([N+](=O)[O-])cc2)CC1c1ccc(OS(N)(=O)=O)cc1` (configuration not stated) are 9.5 nM, 0.88 nM, 3820 nM and 15 nM.
The corresponding values for `CC(=O)N1N=C(c2cccc(OS(N)(=O)=O)c2)CC1c1cc(Cl)ccc1Cl` (configuration not stated) are 92.6 nM, 34.2 nM, 2040 nM and 58.9 nM.
On the same counts, the results for `CC(=O)N1N=C(c2ccc(OS(N)(=O)=O)cc2)CC1c1ccc(F)cc1` (configuration not stated) are 1.5 nM, 11.8 nM, 666 nM and 5.9 nM.
Consider `CC(=O)N1N=C(c2cccc(OS(N)(=O)=O)c2)CC1c1ccc(F)cc1` (configuration not stated), for which the Ki on Carbonic anhydrase 2 came to 38 nM; on Carbonic anhydrase 12 [1], 13.5 nM; on Carbonic anhydrase 1 it was 67.4 nM; on Carbonic anhydrase 9 [2], 8.4 nM.
What is called inhibition is the change of the read-out against control, counted positive when it falls. A higher inhibition goes with a response far below the control. Take `CC(=O)N1N=C(c2ccccc2)CC1c1ccc(OS(N)(=O)=O)cc1` (configuration not stated): the inhibition worked out at 49% at Carbonic anhydrase 12 [3]; 16% at Carbonic anhydrase 9 [4]; 69% at Carbonic anhydrase 9 [5]; 15% at Carbonic anhydrase 12 [6]; 42% at Carbonic anhydrase 9 [7]; 81% at Carbonic anhydrase 9 [8]. In addition, the inhibition came to 89% on Carbonic anhydrase 12 [9] and 77% on Carbonic anhydrase 12 [10]. The Ki was 44.8 nM on Carbonic anhydrase 2, 10.6 nM on Carbonic anhydrase 12 [1], 645 nM on Carbonic anhydrase 1 and 45.1 nM at Carbonic anhydrase 9 [2].
As to `CC(=O)N1N=C(c2ccc(OS(N)(=O)=O)cc2)CC1c1ccc(Cl)cc1` (configuration not stated), the inhibition constant (Ki) on Carbonic anhydrase 2 stood at 6 nM; on Carbonic anhydrase 12 [1], 27.3 nM; at Carbonic anhydrase 1, 1140 nM; at Carbonic anhydrase 9 [2], 6.9 nM.
The corresponding values for `CC(=O)N1N=C(c2cccc(OS(N)(=O)=O)c2)CC1c1ccc(C(F)(F)F)cc1` (configuration not stated) are 22.2 nM, 8.9 nM, 952 nM and 3.7 nM.
The corresponding values for `COc1ccc(C2=NN(C(C)=O)C(c3ccc(OS(N)(=O)=O)cc3)C2)cc1` (configuration not stated) are 0.42 nM, 9.5 nM, 2980 nM and 22.8 nM.
On the same counts, the results for `CC(=O)N1N=C(c2ccc(OS(N)(=O)=O)cc2)CC1c1ccc(Cl)cc1Cl` (configuration not stated) are 9.3 nM, 26.2 nM, 3750 nM and 11.2 nM.
Turning to `CC(=O)N1N=C(c2cccc(OS(N)(=O)=O)c2)CC1c1ccc(Cl)cc1Cl` (configuration not stated), the inhibition constant Ki was found to be 195 nM on Carbonic anhydrase 2, 33.8 nM on Carbonic anhydrase 12 [1], 1410 nM at Carbonic anhydrase 1 and 13.8 nM on Carbonic anhydrase 9 [2].
The corresponding values for `CC(=O)N1N=C(c2ccc(Cl)cc2Cl)CC1c1cccc(OS(N)(=O)=O)c1` (configuration not stated) are 12 nM, 30.8 nM, 6940 nM and 48.7 nM.
For the molecule `CC(=O)N1N=C(c2ccc(OS(N)(=O)=O)cc2)CC1c1ccccc1Cl` (configuration not stated), the values for the Ki on Carbonic anhydrase 2, at Carbonic anhydrase 1 and on Carbonic anhydrase 9 [2] were 9 nM, 8250 nM and 25.9 nM, respectively.
Consider `CC(=O)N1N=C(c2ccc(Cl)cc2Cl)CC1c1ccc(OS(N)(=O)=O)cc1` (configuration not stated), for which the Ki on Carbonic anhydrase 2 worked out at 5.3 nM; on Carbonic anhydrase 12 [1], 42 nM; on Carbonic anhydrase 1, 3520 nM; on Carbonic anhydrase 9 [2], 49.9 nM.
Consider `CC(=O)N1N=C(c2ccc(OS(N)(=O)=O)cc2)CC1c1ccccc1` (configuration not stated), for which the Ki on Carbonic anhydrase 2 stood at 8.9 nM; on Carbonic anhydrase 1, 1310 nM; at Carbonic anhydrase 9 [2], 34.1 nM.
On to `COc1ccc(C2CC(c3ccc(OS(N)(=O)=O)cc3)=NN2C(C)=O)cc1` (configuration not stated), for which the inhibition constant Ki at Carbonic anhydrase 2 was determined as 5.3 nM; at Carbonic anhydrase 12 [1], 42.6 nM; on Carbonic anhydrase 1, 1610 nM; at Carbonic anhydrase 9 [2] it was 25 nM.
As for `CC(=O)N1N=C(c2cccc(OS(N)(=O)=O)c2)CC1c1ccc(Cl)cc1` (configuration not stated), the inhibition constant (Ki) stood at 14.7 nM at Carbonic anhydrase 2, 9.3 nM at Carbonic anhydrase 12 [1], 438 nM at Carbonic anhydrase 1 and 6.9 nM on Carbonic anhydrase 9 [2].
On the same counts, the results for `CC(=O)N1N=C(c2ccccc2)CC1c1cccc(OS(N)(=O)=O)c1` (configuration not stated) are 16.5 nM, 22.9 nM, 755 nM and 13.1 nM.
`CC(=O)N1N=C(c2cccc(OS(N)(=O)=O)c2)CC1c1cccc(Cl)c1` (configuration not stated): the Ki on Carbonic anhydrase 2 stood at 56.9 nM; on Carbonic anhydrase 12 [1], 44.6 nM; at Carbonic anhydrase 1, 805 nM; on Carbonic anhydrase 9 [2] it was 7.3 nM.
With `CC(=O)N1N=C(c2ccc(OS(N)(=O)=O)cc2)CC1c1ccc(C(F)(F)F)cc1` (configuration not stated), the Ki came out at 0.83 nM on Carbonic anhydrase 2, 2740 nM on Carbonic anhydrase 1 and 29.3 nM at Carbonic anhydrase 9 [2].
Turning to `CC(=O)N1N=C(c2cccc(OS(N)(=O)=O)c2)CC1c1cccc2ccccc12` (configuration not stated), the Ki was 216 nM at Carbonic anhydrase 2, 463 nM at Carbonic anhydrase 12 [1], 2240 nM on Carbonic anhydrase 1 and 51.1 nM at Carbonic anhydrase 9 [2].
On the same counts, the results for `CC(=O)N1N=C(c2ccc(OS(N)(=O)=O)cc2)CC1c1cccc2ccccc12` (configuration not stated) are 27.5 nM, 56.4 nM, 3300 nM and 49 nM.
On the same counts, the results for `CC(=O)N1N=C(c2ccc(Cl)c(Cl)c2)CC1c1cccc(OS(N)(=O)=O)c1` (configuration not stated) are 54.8 nM, 85.2 nM, 8170 nM and 15.5 nM.
For the molecule `CC(=O)N1N=C(c2ccc([N+](=O)[O-])cc2)CC1c1cccc(OS(N)(=O)=O)c1` (configuration not stated), the Ki came out at 22.9 nM at Carbonic anhydrase 2, 20.5 nM on Carbonic anhydrase 12 [1], 2550 nM on Carbonic anhydrase 1 and 9.4 nM at Carbonic anhydrase 9 [2].
The corresponding values for `CC(=O)N1N=C(c2cccc(OS(N)(=O)=O)c2)CC1c1ccccc1` (configuration not stated) are 39.4 nM, 55.1 nM, 188 nM and 29.9 nM.
On the same counts, the results for `CC(=O)N1N=C(c2ccc(OS(N)(=O)=O)cc2)CC1c1cccc(Cl)c1` (configuration not stated) are 0.87 nM, 9.8 nM, 2310 nM and 0.72 nM.
The corresponding values for `CC(=O)N1N=C(c2ccc(Cl)cc2)CC1c1cccc(OS(N)(=O)=O)c1` (configuration not stated) are 32.7 nM, 22.3 nM, 2140 nM and 0.81 nM.
As for `CC(=O)N1N=C(c2cccc(OS(N)(=O)=O)c2)CC1c1ccc(C)cc1` (configuration not stated), the Ki at Carbonic anhydrase 2 stood at 71.2 nM; at Carbonic anhydrase 12 [1], 55.9 nM; on Carbonic anhydrase 1, 558 nM; on Carbonic anhydrase 9 [2] it was 29.4 nM.
For the molecule `CC(=O)N1N=C(c2ccc(OS(N)(=O)=O)cc2)CC1c1ccc([N+](=O)[O-])cc1` (configuration not stated), the inhibition constant (Ki) stood at 1.2 nM at Carbonic anhydrase 2, 3210 nM on Carbonic anhydrase 1 and 74.3 nM on Carbonic anhydrase 9 [2].
